Source: ChEMBL document CHEMBL1157539, “Thousands of chemical starting points for antimalarial lead identification” (Nature, 2010)

tested on: Plasmodium falciparum; test: GSK_TCMDC: Inhibition of Plasmodium falciparum 3D7 in whole erythrocytes, using parasite LDH activity as an index of growth.; type: functional, organism-based; details: Plasmodium falciparum, 3D7

Row | SMILES | XC50 [nM]
1 | O=C(Cn1c(SCc2cccc(F)c2F)cc(=O)c2ccccc21)N(CCN1CCCCC1)Cc1ccc(-c2ccc(C(F)(F)F)cc2)cc1 | 664
2 | CC(C)(C)N1CCC(N(Cc2ccc(-c3ccc(C(F)(F)F)cc3)cc2)C(=O)Cn2c(CCc3cccc(F)c3F)nc(=O)c3cccnc32)CC1 | 757
3 | O=S(=O)(c1csc2ccccc12)N(CCC(O)(C(F)(F)F)C(F)(F)F)Cc1cccc(O)c1 | 360
4 | CCCC(CNCc1cccc(SC(F)(F)F)c1)CNc1cc(=O)c2ccccc2[nH]1 (configuration not stated) | 715
5 | O=C(Nc1cc(F)cc(F)c1)N1CCOC(CCN2CCC(c3ccccc3)CC2)(c2ccc(Cl)c(Cl)c2)C1 (configuration not stated) | 466
6 | Cc1cc(C2CCN(CCCCNC(=O)c3ccc(-c4ccc(C(F)(F)F)cc4)cc3)CC2)c(C)cc1OCCOC1CCCCO1 (configuration not stated) | 785
7 | CC(=O)N1N=C(c2cccs2)Sc2c1nc(-c1ccc(Cl)cc1)n2C(C)=O | 736
8 | CC(=O)Nc1nc(C(=O)Nc2cccc(-c3cccc(-c4nc5cc(F)ccc5[nH]4)c3)c2)cs1 | 89.2
9 | FC(F)(F)c1ccc2[nH]c(-c3cccc(-c4cccc(CNCC5CCCO5)c4)c3)nc2c1 (configuration not stated) | 422
10 | c1ccc(Oc2ccc(Nc3ccnc4cc(-c5ccc(CN6CCCCC6)o5)ccc34)cc2)nc1 | 331
11 | Cc1cc([N+](=O)[O-])ccc1NC(=O)Nc1cccc(C(F)(F)F)c1 | 721
12 | Cc1cc(Nc2c(C(N)=O)cnc3cc(-c4ccoc4)ccc23)ccc1N1CCN(C)CC1 | 797
13 | O=C(N[C@H]1CCN(Cc2ccc(OCCN3CCNCC3)c(Cl)c2)C1)c1ccc(Cl)c(Cl)c1 | 1060
14 | CC(C)(C)c1ccc(C(=O)Nc2ccc(NC(=O)c3ccc([N+](=O)[O-])o3)cc2)cc1 | 844
15 | O=C(/C=C/c1cc(C(F)(F)F)ccc1F)NCCCCCN1CCC(c2c[nH]c3ccccc23)CC1 | 1130
16 | O=C(NCc1cccc2ccccc12)[C@@H]1CCCN1C(=O)c1ccc(O)c(-c2ccc(Cl)c(Cl)c2)c1 | 948
17 | CC(C)(CNCc1ccc(Cl)cc1)c1nc(-c2ccc(Cl)c(O)c2)c(-c2ccncc2)[nH]1 | 476
18 | COc1ccc2nccc(N3CCN(CCNCc4ccc5c(n4)NC(=O)CO5)CC3)c2n1 | 885
19 | CCN(CC)CCNC(=O)c1ccc(NC(=O)c2cc(-c3ccncc3)nc3ccccc23)cc1 | 770
20 | COc1ccc2ncc(C#N)c(CCN3CCC(NCc4ccc5c(c4)OCCO5)CC3)c2c1 | 910
21 | COc1ccc(CCN(C)CCCN2CCC(NC(=O)c3cccc4c(=O)c5ccccc5sc34)CC2)cc1OC | 786
22 | Cc1ccc(-c2nc(N3CCN(C(=O)c4ccco4)CC3)c3ccccc3n2)cc1 | 970
23 | COC(=O)c1cccc(NC(=O)NC2CCN(c3ccnc(NCc4ccc(F)cc4)n3)CC2)c1 | 809

Row | SMILES | XC50 [nM]
24 | CCc1cc(I)c2c(c1)C(NCCCNc1cc(=O)c3ccccc3[nH]1)CCN2 (configuration not stated) | 887
25 | CC1(C)NC(N)=NC(=N)N1OCc1cc(Cl)c(Cl)cc1CON1C(=N)N=C(N)NC1(C)C | 14.6
26 | Clc1ccc2nnc(-c3c(Cl)cccc3Cl)n2n1 | 905
27 | O=C(C=Cc1ccccc1O)N1CCC(CN2CCC(c3c[nH]c4ccccc34)CC2)CC1 | 961
28 | Cc1cc(NCCc2cccc(F)c2)nc(NC(=N)Nc2cccc(C(F)(F)F)c2)n1 | 146
29 | O=C(Cc1ccsc1)NCC(c1ccccc1Cl)c1c[nH]c2ccccc12 (configuration not stated) | 950
30 | CCCCCCCNCc1c(O)ccc2c(CNCCCCCCC)c(O)ccc12 | 150
31 | CC(C)(CNCCOc1ccc(Cl)cc1)c1nc(-c2ccnc(N)n2)c(-c2ccc(Cl)c(O)c2)[nH]1 | 834
32 | COc1ccc(C2CCN(CCCCNC(=O)c3ccc(NC(=O)c4ccc(Cl)cc4)cc3)C2)c(OC)c1 (configuration not stated) | 1200
33 | COc1ccc(CNCCCCCNCc2ccc(Cl)c(Cl)c2)cc1Cl | 751
34 | C[C@@H](NC(=O)c1nn(-c2ccc(Cl)cc2)c(=O)c2ccccc12)C(C)(C)C | 1120
35 | COc1cc(CS(C)(=O)=O)ccc1Nc1nccc(-c2c(-c3cccc(NC(=O)c4c(F)cccc4F)c3)nn3ccccc23)n1 | 966
36 | CCOC(=O)c1ccc(NC(=O)NNC(=O)c2ccc(CCN3CCC(c4nc(COCC(F)(F)F)c(-c5ccc(F)cc5)o4)CC3)cc2)cc1 | 574
37 | COc1ccc(OCCCN2CCN(CC(c3ccc(F)cc3)N3CCN(C(C)C)CC3)CC2)c2ccccc12 (configuration not stated) | 650
38 | C[C@@H]1CC[C@H](NC(=O)[C@H](CC2CCCC2)NC(=O)N2CCNCC2)C(=O)CN1S(=O)(=O)c1ccccn1 | 891
39 | Cc1ccc(O)cc1Nc1ccnc2cc(-c3csc(CN(C)CCN(C)C)n3)ccc12 | 789
40 | CCCCCC(C)C(C)c1cc(O)c2c(c1)OC1(C(C)C)CC(O)C(C)C2C1 (configuration not stated) | 985
41 | Cc1ccc2[nH]c(/C=C/c3cccc4cc[nH]c34)nc2c1 | 1180
42 | O=C(Nc1cccc(CN2CCN(Cc3ccc(O)cc3)CC2)c1)c1ccc(Cl)c(Cl)c1 | 253
43 | CC(=O)Nc1cccc(CN(Cc2ccc(-c3ccc(CNCc4cccnc4)cn3)cc2)C(=O)Cc2cccnc2)c1 | 820
44 | O=C(Nc1cccc(CN2CCCN(Cc3ncc[nH]3)CC2)c1)c1cc2ccccc2s1 | 734
45 | CCCNC(=O)C1CCN(C(c2ccccc2)c2ccc(Cl)c(Cl)c2)CC1 (configuration not stated) | 708
46 | CC(C)COc1ccc(C(O)C(CN2CCCCC2)c2ccccc2)cc1 (configuration not stated) | 923

Row | SMILES | XC50 [nM]
47 | Cc1cc(C)c(C)c(OCCCON2C(=N)N=C(N)NC2(C)C)c1C | 3.2
48 | CCn1cc2c3c(cc(C(=O)N[C@@H](Cc4ccccc4)[C@H](O)CNC4CCOCC4)cc31)N(C)S(=O)(=O)CC2 | 208
49 | Cc1cc(S(=O)(=O)N2CCCCC(c3ccc(C(F)(F)F)cc3)=N2)c(Cl)cc1Cl | 504
50 | O=C(NC1CCN(Cc2ccccc2)CC1)c1cccc(Nc2nc(-c3ccccc3)cs2)c1 | 1030
51 | O=C(/C=C/c1ccc(Cl)c(Cl)c1)NCCCCCN1CCC(NC(=O)Nc2ccccc2Cl)CC1 | 714
52 | Clc1ccc(OC2CCC(Cn3ccnc3)(c3ccc(Cl)cc3Cl)CC2)c(Cl)c1 (configuration not stated) | 800
53 | CCCc1cc(NC2CCN(C)CC2)nc(Nc2cccc(OC)c2)n1 | 765
54 | Cc1ccc(CNC(=O)[C@H](CCCN)Nc2cc(C)nc(NCC3CCCCC3)n2)cc1 | 1220
55 | CCCNCc1ccc(-c2ccc(CN(CC3CCCO3)C(=O)COc3ccccc3Cl)cc2)nc1 (configuration not stated) | 1180
56 | CC(C)(CNC(=O)C1CCN(CCOc2ccc(Cl)cc2)CC1)c1nc(-c2ccc(Cl)c(O)c2)c(-c2ccncc2)[nH]1 | 709
57 | CCOc1cc[nH]c(=O)n1 | 458
58 | COc1ccc(Cc2nc(/N=C(\N)Nc3ccccc3)ccc2OC)cc1 | 852
59 | CCCN/C=N/c1cc(-c2csc(NC(=N)N)n2)cc([N+](=O)[O-])c1 | 1740
60 | Cc1ccc(-c2cc(C(=O)Nc3ccc(S(=O)(=O)N4CC(C)OC(C)C4)cc3)[nH]n2)c(O)c1 (configuration not stated) | 608
61 | Cc1cccc2nc(-c3cccc(-c4ccc(NC(=O)Nc5ccc(Cl)cc5)cc4)c3)[nH]c12 | 199
62 | CN(C)C(=S)N/N=C1/C(=O)Nc2ccc(OC(F)(F)F)cc21 | 1020
63 | O=C(NC1CCN(c2ccnc3ccccc23)C1)c1ccc(OC(F)(F)F)cc1 (configuration not stated) | 1150
64 | NC(=O)CN1CC=C(c2c[nH]c3ccc(Br)cc23)CC1 | 1100
65 | O=C(/C=C/c1ccc(Cl)c(Cl)c1)NCCCCCN1CCC(NC(=O)Nc2ccccc2F)CC1 | 839
66 | CN1CCC(N(C)C(=O)C=Cc2cn(-c3ccccc3)nc2-c2cc3ccccc3o2)CC1 | 1340
67 | O=C(/C=C/c1ccc(Cl)c(Cl)c1)NCCCCCN1CCC(c2n[nH]c(-c3ccccc3)c2Br)CC1 | 723
